In patent publication US10160762B2, “6-alkyl dihydropyrazolopyrimidinone compounds as PDE2 inhibitors” (Merck Sharp & Dohme Corp., priority 2015, dated 2018):

Molecular target: T1, Rhesus PDE2A3 (Macaca mulatta, UniProt B3VTJ2)
T1 construct: made in house; host or cells: AD293 cells, transient transfection; supernatant of sonicated lysate
T1 sequence (B3VTJ2 1-941): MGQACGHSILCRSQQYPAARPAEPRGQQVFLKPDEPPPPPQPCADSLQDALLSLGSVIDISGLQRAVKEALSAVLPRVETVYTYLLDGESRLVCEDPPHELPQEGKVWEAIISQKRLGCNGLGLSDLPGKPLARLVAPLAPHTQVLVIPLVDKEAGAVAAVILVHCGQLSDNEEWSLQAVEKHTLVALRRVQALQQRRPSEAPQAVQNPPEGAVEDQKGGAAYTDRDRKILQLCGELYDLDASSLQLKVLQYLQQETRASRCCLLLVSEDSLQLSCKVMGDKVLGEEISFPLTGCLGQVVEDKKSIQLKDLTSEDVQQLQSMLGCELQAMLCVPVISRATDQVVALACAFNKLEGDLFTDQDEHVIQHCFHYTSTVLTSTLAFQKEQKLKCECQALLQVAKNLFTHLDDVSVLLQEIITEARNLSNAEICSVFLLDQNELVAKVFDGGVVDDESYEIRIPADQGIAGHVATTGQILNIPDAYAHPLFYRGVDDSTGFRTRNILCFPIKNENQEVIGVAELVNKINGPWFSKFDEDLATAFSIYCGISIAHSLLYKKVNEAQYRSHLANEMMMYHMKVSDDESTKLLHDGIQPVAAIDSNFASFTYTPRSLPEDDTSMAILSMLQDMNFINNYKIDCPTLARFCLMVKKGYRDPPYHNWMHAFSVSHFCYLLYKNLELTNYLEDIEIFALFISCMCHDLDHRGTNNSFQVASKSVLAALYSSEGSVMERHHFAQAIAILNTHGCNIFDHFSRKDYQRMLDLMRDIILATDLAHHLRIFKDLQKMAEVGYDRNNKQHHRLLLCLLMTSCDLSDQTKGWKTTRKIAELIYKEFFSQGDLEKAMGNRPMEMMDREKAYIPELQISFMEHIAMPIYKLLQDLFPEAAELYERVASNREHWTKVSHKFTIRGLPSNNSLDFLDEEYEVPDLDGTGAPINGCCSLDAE
Assay: PDE2 fluorescence polarization (IMAP FP) inhibition assay, rhesus PDE2A3
Format: biochemical, rhesus macaque
Conditions: Lab B; read-out: Rhesus PDE2 Ki (nM) Lab B
Outline: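 Enzyme source was the lysate supernatant of AD293 cells transiently expressing rhesus PDE2A3, diluted to give 20% conversion of 50 nM FAM-cAMP, with 1 µM cGMP as activator. Buffer was 10 mM Tris pH 7.2, 10 mM MgCl2, 1 mM DTT.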

Row | SMILES | Ki [nM]
1 | Cc1nc2c(c(CO)nn2C(C)c2ccc(C(F)(F)F)cc2Cl)c(=O)[nH]1 (single isomer, unassigned) [Example 19, (S)- or (R)-1-(1-(2-Chloro-4-(trifluoromethyl)phenyl)ethyl)-3-(hydroxymethyl)-6-methyl-1H-pyrazolo[3,4-d]pyrimidin-4(5H)-one] | 1.9
2 | Cc1nc2c(c(CO)nn2C(c2ccc(C(C)(C)C)cc2)C2CC2)c(=O)[nH]1 (single isomer, unassigned) [Example 89, (S)- or (R)-1-((4-tert-Butylphenyl)(cyclopropyl)methyl)-3-(hydroxymethyl)-6-methyl-1H-pyrazolo[3,4-d]pyrimidin-4(5H)-one] | 0.48
3 | Cc1nc2c(c(CC(F)(F)F)nn2C(c2ccc(C(F)(F)F)cc2)C2(C)CC2)c(=O)[nH]1 (single isomer, unassigned) [Example 59, (S)- or (R)-6-Methyl-1-((1-methylcyclopropyl)(4-(trifluoromethyl)phenyl)methyl)-3-(2,2,2-trifluoroethyl)-1H-pyrazolo[3,4-d]pyrimidin-4(5H)-one] | 22
4 | Cc1nc2c(c(CO)nn2C(c2ccc(C(F)(F)F)cc2)C2(C)CC2)c(=O)[nH]1 (single isomer, unassigned) [Example 24, (R)- or (S)-3-(Hydroxymethyl)-6-methyl-1-((1-methylcyclopropyl)(4-(trifluoromethyl)phenyl)methyl)-1H-pyrazolo[3,4-d]pyrimidin-4(5H)-one] | 1.9
5 | Cc1nc2c(c(CO)nn2C(c2ccc(OC(F)(F)F)c(F)c2)C2CC2)c(=O)[nH]1 (single isomer, unassigned) [Example 92, (R)- or (S)-1-(Cyclopropyl(3-fluoro-4-(trifluoromethoxy)phenyl)methyl)-3-(hydroxymethyl)-6-methyl-1H-pyrazolo[3,4-d]pyrimidin-4(5H)-one] | 10

The remaining lines, values ahead:

Row | Ki [nM] | SMILES
6 | 36 | CC(C)c1nc2c(c(CO)nn2C(C)c2ccc(C(F)(F)F)cc2)c(=O)[nH]1 (racemic) [Example 296, 3-(Hydroxymethyl)-6-(1-methylethyl)-1-{1-[4-(trifluoromethyl)phenyl]ethyl}-1,5-dihydro-4H-pyrazolo[3,4-d]pyrimidin-4-one]
7 | 179 | Cc1nc2c(c(CC(F)F)nn2C(C)c2ccc(C(F)(F)F)cc2)c(=O)[nH]1 (single isomer, unassigned) [Example 285]
8 | 1.5 | Cc1nc2c(c(C(F)(F)CO)nn2C(C)c2ccc(C(F)(F)F)cc2)c(=O)[nH]1 (single isomer, unassigned) [Example 255]
9 | 3.7 | Cc1nc2c(c(CC(F)F)nn2C(C)c2ccc(C(F)(F)F)cc2)c(=O)[nH]1 (single isomer, unassigned) [Example 286]
10 | 15 | Cc1nc2c(c(CF)nn2C(c2ccc(C(F)(F)F)cc2)C(C)(C)C)c(=O)[nH]1 (single isomer, unassigned) [Example 234, (S)- or (R)-1-(2,2-Dimethyl-1-(4-(trifluoromethyl)phenyl)propyl)-3-(fluoromethyl)-6-methyl-1H-pyrazolo[3,4-d]pyrimidin-4(5H)-one]
